Data reported in patent US12110311B2, “Cyclic deoxyribonucleotide compounds” (NUCORION PHARMACEUTICALS, INC., priority 2019, dated 2024).
Read-outs that look alike come from different tables or passages of the source.

Tests used:
[1] = in vivo; cited from earlier work
[2] = Tissue distribution following oral administration in rats (prodrug and metabolite levels in liver and blood); assay type: in vivo; details: rat, 1 hour after oral administration, 5 mg/kg
Description: The liver specificity of the disclosed compounds is compared relative to a corresponding active compound in the liver and other organs that could be targets of toxicity.
Reference compounds and the cyclic deoxyribonucleotide compounds are administered at 5-50 mg/kg to fasted rats by oral gavage. Plasma concentrations of the metabolites, and parent compounds in circulation and in the hepatic portal vein are determined by HPLC-UV, and the liver, small intestine, and other organ concentrations are measured by LC-MS using the standard chromatography method.

[3] = prodrug level in blood, read-out: Drug blood
[4] = prodrug level in liver, read-out: Drug liver

Which biological half-life [1] does the source give for `O=c1[nH]cc(F)c(=O)[nH]1` [5-Fluorouracil] here?
The biological half-life was ~16 minutes.

For `CC(C)OC(=O)c1ccccc1COP1(=O)OC[C@H]2O[C@@H](n3cc(F)c(=O)[nH]c3=O)C[C@@H]2O1` (stereo partly drawn) [Compound 124, Isopropyl 2-((((4aR,6R,7aS)-6-(5-fluoro-2,4-dioxo-3,4-dihydropyrimidin-1(2H)-yl)-2-oxidotetrahydro-4H-furo[3,2-d][1,3,2]dioxaphosphinin-2-yl)oxy)methyl)benzoate], which concentration at 1 h [2, 3] is on record?
The concentration at 1 h was 11 ng/mL.

What about the concentration at 1 h [2, 4] of the same compound?
The concentration at 1 h was 668 ng/g.

What does the source list for `CCCOC(=O)c1ccccc1COP1(=O)OC[C@H]2O[C@@H](n3cc(F)c(=O)[nH]c3=O)C[C@@H]2O1` (stereo partly drawn) [Compound 126, Propyl 2-((((4aR,6R,7aS)-6-(5-fluoro-2,4-dioxo-3,4-dihydropyrimidin-1(2H)-yl)-2-oxidotetrahydro-4H-furo[3,2-d][1,3,2]dioxaphosphinin-2-yl)oxy)methyl)benzoate]?
concentration at 1 h [2, 3]: 2.7 ng/mL; concentration at 1 h [2, 4]: 9.3 ng/g
